Experiments:
[1] = target: T1, E. coli alkaline phosphatase, native (strain CW3747) (Escherichia coli, UniProt P00634); experiment: Kinetic constants, hydrolysis of PNPP to p-nitrophenol; assay type: biochemical; details: native enzyme, 1M Tris HCl
T1 construct: The monomer is an unglycosylated single chain of 449 amino acids in its mature form; made in house; host or cells: E. coli strain CW3747 (ATCC 27256), enzyme isolated by the method of Applebury et al. 1970
Protocol: B, Native alkaline phosphatase, [K2 HPO4 ]-0 (0), 1×10^-5 M ( ), 3×10^-5 M (Δ). The enzyme was assayed as described under "Materials and Methods" in Example I except that the assay solution contained K2 HPO4 at the indicated concentration and PNPP at concentrations ranging from 5×10^-6 to 1×10^-3 M.
Enzyme and Chemicals - Alkaline phosphatase was isolated from E. coli strain CW3747 (A.T.C.C. 27256) according to the method described by Applebury et al. (Applebury, M. L. et al. J. Biol. Chem. 245: 4968 (1970)). Enzyme concentrations were determined spectrophotometrically at 278 nm using E1 cm^0.1% =0.72. Molar calculations were based on Mr =94,000. The enzyme activity was assayed as the rate of hydrolysis of PNPP^1 to p-nitrophenol. The reaction was monitored by following the increase in absorbance at 410 nm (Δε=1.62×10^4M^-1 cm^-1) in a solution of 1×10^-3 M PNPP, 1M Tris HCl, 10 mM MgCl2, 5×10^-5 M ZnCl2, pH 8.0, 20° C.

[2] = target: T2, E. coli alkaline phosphatase, trypsin-modified (tm-AP; NH2-terminal 10 or 11 amino acids removed, cleaved at Arg-10 Ala-11) (Escherichia coli, UniProt P00634); experiment: as above; assay type: biochemical; details: trypsin-modified enzyme, 1M Tris HCl
T2 construct: trypsin cleaves the Arg-10 Ala-11 bond leaving Ala as the NH2 -terminal residue; made in house; host or cells: E. coli strain CW3747 enzyme treated with trypsin, purified by chromatofocusing
Protocol: The enzyme was assayed as described under "Materials and Methods" in Example I except that the assay solution contained K2 HPO4 at the indicated concentration and PNPP at concentrations ranging from 5×10^-6 to 1×10^-3 M.
Enzyme and Chemicals - Alkaline phosphatase was isolated from E. coli strain CW3747 (A.T.C.C. 27256) according to the method described by Applebury et al. (Applebury, M. L. et al. J. Biol. Chem. 245: 4968 (1970)). Enzyme concentrations were determined spectrophotometrically at 278 nm using E1 cm^0.1% =0.72. Molar calculations were based on Mr =94,000. The enzyme activity was assayed as the rate of hydrolysis of PNPP^1 to p-nitrophenol. The reaction was monitored by following the increase in absorbance at 410 nm (Δε=1.62×10^4M^-1 cm^-1) in a solution of 1×10^-3 M PNPP, 1M Tris HCl, 10 mM MgCl2, 5×10^-5 M ZnCl2, pH 8.0, 20° C. […] Trypsin, PNPP, and carboxypeptidase Y were obtained from Sigma. […] All other chemicals employed were reagent grade.
To prepare trypsin-modified alkaline phosphatase, native alkaline phosphatase (3 mg/ml) was treated with 10% (w/w) trypsin for 60 min at 20° C. and the major protein peak was isolated using the above chromatofocusing procedure.

[3] = 10 mM MgCl2, 5×10^-5 M ZnCl2, pH 8.0, 20° C, PNPP 5×10^-6 to 1×10^-3 M

T2 sequence (P00634 33-471): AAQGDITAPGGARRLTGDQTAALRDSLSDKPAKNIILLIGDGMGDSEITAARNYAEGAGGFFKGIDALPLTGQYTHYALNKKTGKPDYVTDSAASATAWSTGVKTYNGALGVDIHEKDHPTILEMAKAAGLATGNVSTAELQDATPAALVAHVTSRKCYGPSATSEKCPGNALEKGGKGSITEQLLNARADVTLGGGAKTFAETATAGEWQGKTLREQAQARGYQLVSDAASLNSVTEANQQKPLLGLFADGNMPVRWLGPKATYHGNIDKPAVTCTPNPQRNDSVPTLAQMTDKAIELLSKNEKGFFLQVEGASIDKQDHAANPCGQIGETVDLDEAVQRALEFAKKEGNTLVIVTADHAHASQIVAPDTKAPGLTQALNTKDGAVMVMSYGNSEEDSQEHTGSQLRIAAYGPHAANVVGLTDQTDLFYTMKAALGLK
T1 sequence (P00634 23-471): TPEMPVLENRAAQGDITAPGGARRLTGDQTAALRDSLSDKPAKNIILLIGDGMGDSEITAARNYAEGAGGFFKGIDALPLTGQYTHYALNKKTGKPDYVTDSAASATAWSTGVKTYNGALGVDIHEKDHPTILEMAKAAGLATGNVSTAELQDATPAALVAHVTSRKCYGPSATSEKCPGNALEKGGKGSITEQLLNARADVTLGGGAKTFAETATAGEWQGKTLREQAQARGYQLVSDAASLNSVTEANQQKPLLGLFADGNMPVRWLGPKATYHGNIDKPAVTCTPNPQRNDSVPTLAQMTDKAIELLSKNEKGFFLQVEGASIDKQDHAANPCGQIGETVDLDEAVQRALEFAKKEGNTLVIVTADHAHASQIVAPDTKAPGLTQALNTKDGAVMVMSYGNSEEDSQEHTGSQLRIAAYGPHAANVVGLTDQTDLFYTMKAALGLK

O=[N+]([O-])c1ccc(OP(=O)(O)O)cc1 [PNPP, p-nitrophenolphosphate]
Km [1, 3]: 40 µM | Vmax (PNPP) ([1]; pH 8.0, 20° C): 2500 µmol/h/mg | Km [2, 3]: 19 µM | Vmax (PNPP) ([2]; pH 8.0, 20° C): 2000 µmol/h/mg

— patent US4656128A, “Modified alkaline phosphatase” (Research Corporation, priority 1985, dated 1987)
